# Measured values published in US4791215A, “Derivatives of glutamic acid and aspartic acid” (priority 1984, dated 1988).
# How the values were obtained:
# morphine analgesia = test: Increase in analgesia of morphine, Tail Flick Test (Experiment 1); type: in vivo, rats; conditions: for M (10-90) ± SE, mean percentage variation of latency: mean 10-90 min; for Power ratio with respect to morphine alone: rat, in vivo
# Method in brief: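 Tail-flick latency to 75 °C radiant heat, capped at 8 s, measured in male non-fasted rats weighing 150-200 g. Percentage change per animal derived from pre-treatment baseline versus post-drug readings at 10-90 min (10, 20, 30, 45, 60, 90 min).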
# [1] = tested on: tolerance induced by morphine; test: Antagonism to development of tolerance to repeated morphine HCl, Tail Flick Test (Experiment 5); conditions: for percentage variation in latency time (Effect %): morphine 5 mg/kg i.p. alone
# Experimental: Experiment No. 5: Antagonism of several products of the invention to the development of tolerance induced in rats by the repeated administration of morphine HCl.
# Several of the compounds of the invention were examined to determine their possible capacity to antagonise the development of tolerance induced by morphine. Groups of 6 male rats having a weight of about 200-250 grams were used.
# At intervals of 24 hours from the first treatment (time 0) each animal (except the control group treated physiologically) received 5 mg/kg of morphine hydrochloride i.p. together with 10 mg/kg i.p. of the compounds indicated (with the exception of the group treated solely with morphine).
# The determination of the pain threshold was effected 15', 30', 45' and 60' from the treatment by the Tail Flick Test.
# [2] = tested on: endogenous opiates analgesia; test: Analgesic activity of endogenous opiates released by transcutaneous shock, Tail Flick Test (Experiment 3); type: in vivo, rats
# Experimental: Experiment No. 3: Influence of several of the compounds of the invention on the analgesic activities of endogenous opiates released by transcutaneous shock in rats and measured by the Tail Flick Test
# The method is that described by Lewis et al. J. Neurosc. 1, 358 […]. Male rats which have not fasted and have a weight of about 200 g are used.
# The animals are stressed by the application of a 60 Hz-2.5 mA current to the front leg in pulses of a duration of 1 second every 5 seconds for 20 minutes.
# This stress regime induces the release of endogenous opiates.
# [3] = tested on: CCK-8 induced contraction of guinea pig gall bladder; test: Anti-CCK activity on gall bladder strips in vitro; conditions: CCK-8 10 ng/ml
# Method in brief: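 CCK-8 at 10 ng/ml drove isometric contraction of guinea pig gall bladder strips held at 32 °C in oxygenated Krebs (O2/CO2 95:5). Antagonism was measured at graded compound concentrations and reported as ED50, in μg/ml, for 50% inhibition of the contraction.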
# [4] = tested on: enkephalinamide (DALA) analgesia; test: Potentiation of DALA (enkephalinamide) analgesia, i.c.v., Tail Flick Test (Experiment 4); type: in vivo, rats; set-up: scale not given here
# Source text: Experiment No. 4: Potentiation of the analgesic activities of enkephalins induced by some of the compounds of the invention. […]
# [5] = 10', compound 10 mg/kg i.p. + morphine 2 mg/kg
# [6] = 20', compound 10 mg/kg i.p. + morphine 2 mg/kg
# [7] = 30', compound 10 mg/kg i.p. + morphine 2 mg/kg
# [8] = 45', compound 10 mg/kg i.p. + morphine 2 mg/kg
# [9] = 60', compound 10 mg/kg i.p. + morphine 2 mg/kg
# [10] = 90', compound 10 mg/kg i.p. + morphine 2 mg/kg
# [11] = compound 10 mg/kg i.p. + morphine 2 mg/kg
# [12] = compound 1 mg/kg iv + stress, 5'
# [13] = compound 1 mg/kg iv + stress, 10'
# [14] = compound 1 mg/kg iv + stress, 15'
# [15] = compound 3 mg/kg iv + stress, 5'
# [16] = compound 3 mg/kg iv + stress, 10'
# [17] = compound 3 mg/kg iv + stress, 15'
smiles,measurement,setting,value
"CN1CC[C@]23c4c5ccc(O)c4O[C@H]2[C@@H](O)C=C[C@H]3[C@H]1C5 [Morphine, reference compound]",percentage variation of latency of pain sensation,"morphine analgesia; 10', morphine 2 mg/kg alone",10.8 ± 4.0%
same,percentage variation of latency of pain sensation,"morphine analgesia; 10', morphine 2 mg/kg alone, listed as Morphene",10.8%
same,percentage variation of latency of pain sensation,"morphine analgesia; 20', morphine 2 mg/kg alone",54.2 ± 17.0%
same,percentage variation of latency of pain sensation,"morphine analgesia; 20', morphine 2 mg/kg alone, listed as Morphene",54.2 ±17%
same,percentage variation of latency of pain sensation,"morphine analgesia; 30', morphine 2 mg/kg alone",46.6 ± 21.0%
same,percentage variation of latency of pain sensation,"morphine analgesia; 30', morphine 2 mg/kg alone, listed as Morphene",46.6 ± 21%
same,percentage variation of latency of pain sensation,"morphine analgesia; 45', morphine 2 mg/kg alone",41.7 ± 16.0%
same,percentage variation of latency of pain sensation,"morphine analgesia; 45', morphine 2 mg/kg alone, listed as Morphene",41.7%
same,percentage variation of latency of pain sensation,"morphine analgesia; 60', morphine 2 mg/kg alone",32.0%
same,percentage variation of latency of pain sensation,"morphine analgesia; 60', morphine 2 mg/kg alone, listed as Morphene",32 ± 17%
same,percentage variation of latency of pain sensation,"morphine analgesia; 90', morphine 2 mg/kg alone",-6.4 ± 10.0%
same,percentage variation of latency of pain sensation,"morphine analgesia; 90', morphine 2 mg/kg alone, listed as Morphene",-6.4 ± 10%
same,"M (10-90) ± SE, mean percentage variation of latency",morphine analgesia; morphine 2 mg/kg alone,29.8 ± 23.0%
same,"M (10-90) ± SE, mean percentage variation of latency","morphine analgesia; morphine 2 mg/kg alone, listed as Morphene",29.8%
same,day at which activity reaches level of inactivity (0),[1]; from the straight lines of regression,fell to 0 on the sixth day of treatment
same,percentage variation in latency time (Effect %),[1]; 24 h,42.09%
same,percentage variation in latency time (Effect %),[1]; 48 h,26.54%
same,percentage variation in latency time (Effect %),[1]; 72 h,19.96%
same,percentage variation in latency time (Effect %),[1]; 96 h,10.79%
same,percentage variation in latency time (Effect %),[1]; 120 h,4.45%
same,percentage variation in latency time (Effect %),[1]; 168 h,2.12%
same,percentage variation in latency time (Effect %),[1]; time 0,58.03%
same,activity versus controls / morphine group during treatment,[1]; up to 168 hours,not significantly different from the control group
CC(C)c1ccc(C(=O)NC(CCC(=O)N2CCCCC2)C(=O)O)cc1 (racemic) [Compound D-17],percentage variation of latency of pain sensation,morphine analgesia; [5],62.3 ± 15%
same,percentage variation of latency of pain sensation,morphine analgesia; [6],92.9 ± 7%
same,percentage variation of latency of pain sensation,morphine analgesia; [7],100 ± 0%
same,percentage variation of latency of pain sensation,morphine analgesia; [8],100 ± 0%
same,percentage variation of latency of pain sensation,morphine analgesia; [9],100 ± 0%
same,percentage variation of latency of pain sensation,morphine analgesia; [10],100 ± 0%
same,"M (10-90) ± SE, mean percentage variation of latency",morphine analgesia; [11],92.5 ± 15%
same,Power ratio with respect to morphine alone,morphine analgesia,3.10
same,"average latency, Tail Flick",[2]; [12],6.18 ± 0.65 s
same,"average latency, Tail Flick",[2]; [13],7.02 ± 0.76 s
same,"average latency, Tail Flick",[2]; [14],5.31 ± 0.55 s
same,"average latency, Tail Flick",[2]; [15],9.08 ± 0.55 s
same,"average latency, Tail Flick",[2]; [16],9.08 ± 0.80 s
same,"average latency, Tail Flick",[2]; [17],6.08 ± 0.98 s
same,ED50 (concentration antagonising 50% of contracting effect of CCK-8),[3],> 300 µg/mL
CCCN(CCC)C(=O)C(CCC(=O)O)NC(=O)c1ccc(C(F)(F)F)cc1 (stereo not drawn) [Compound C-39],percentage variation of latency of pain sensation,morphine analgesia; [5],44.9 ± 15%
same,percentage variation of latency of pain sensation,morphine analgesia; [6],100.0 ± 0%
same,percentage variation of latency of pain sensation,morphine analgesia; [7],93.3 ± 7%
same,percentage variation of latency of pain sensation,morphine analgesia; [8],94.4 ± 6%
same,percentage variation of latency of pain sensation,morphine analgesia; [9],85.6 ± 7%
same,percentage variation of latency of pain sensation,morphine analgesia; [10],81.8 ± 10%
same,"M (10-90) ± SE, mean percentage variation of latency",morphine analgesia; [11],83.3 ± 20%
same,Power ratio with respect to morphine alone,morphine analgesia,2.79
same,"average latency, Tail Flick",[2]; [12],6.3 ± 0.4 s
same,"average latency, Tail Flick",[2]; [13],5.8 ± 0.38 s
same,"average latency, Tail Flick",[2]; [14],4.04 ± 0.36 s
same,"average latency, Tail Flick",[2]; [15],7.54 ± 0.65 s
same,"average latency, Tail Flick",[2]; [16],5.98 ± 0.41 s
same,"average latency, Tail Flick",[2]; [17],5.08 ± 0.6 s
"CSCC[C@H](NC(=O)[C@H](Cc1ccccc1)NC(=O)CNC(=O)[C@@H](C)NC(=O)[C@@H](N)Cc1ccc(O)cc1)C(N)=O [DALA, D-ala-methionine-enkephalinamide, reference compound]","analgesic activity, Tail Flick","[4]; DALA 10 μg/kg ICV alone, 10'",21.9
same,"analgesic activity, Tail Flick","[4]; DALA 10 μg/kg ICV alone, 20'",25.9
same,"analgesic activity, Tail Flick","[4]; DALA 10 μg/kg ICV alone, 30'",26.2
same,"analgesic activity, Tail Flick","[4]; DALA 10 μg/kg ICV alone, 45'",26.0
same,"analgesic activity, Tail Flick","[4]; DALA 10 μg/kg ICV alone, 60'",7.3
same,"analgesic activity, Tail Flick","[4]; DALA 10 μg/kg ICV alone, 90'",5.0
same,"MEAN analgesic activity, Tail Flick",[4]; DALA 10 μg/kg ICV alone,18.7
same,"analgesic activity, Tail Flick","[4]; DALA 10 mg/kg (ICV) as printed, alone, 10'",4.1
same,"analgesic activity, Tail Flick","[4]; DALA 10 mg/kg (ICV) as printed, alone, 20'",6.24
same,"analgesic activity, Tail Flick","[4]; DALA 10 mg/kg (ICV) as printed, alone, 30'",9.19
same,"analgesic activity, Tail Flick","[4]; DALA 10 mg/kg (ICV) as printed, alone, 45'",8.29
same,"analgesic activity, Tail Flick","[4]; DALA 10 mg/kg (ICV) as printed, alone, 60'",6.20
same,"analgesic activity, Tail Flick","[4]; DALA 10 mg/kg (ICV) as printed, alone, 90'",10.56
same,"MEAN analgesic activity, Tail Flick","[4]; DALA 10 mg/kg (ICV) as printed, alone",7.51
CCCN(CCC)C(=O)C(CCC(=O)O)NC(=O)c1ccc(C)cc1 (stereo not drawn) [Compound C-29],percentage variation of latency of pain sensation,morphine analgesia; [5],48.7 ± 20%
same,percentage variation of latency of pain sensation,morphine analgesia; [6],75.5%
same,percentage variation of latency of pain sensation,morphine analgesia; [7],73.6 ± 11%
same,percentage variation of latency of pain sensation,morphine analgesia; [8],70.0 ± 19%
same,percentage variation of latency of pain sensation,morphine analgesia; [9],47.3 ± 23%
same,percentage variation of latency of pain sensation,morphine analgesia; [10],6.0 ± 14%
same,"M (10-90) ± SE, mean percentage variation of latency",morphine analgesia; [11],53.5%
same,Power ratio with respect to morphine alone,morphine analgesia,1.80
same,ED50 (concentration antagonising 50% of contracting effect of CCK-8),[3],262 µg/mL
CCCN(CCC)C(=O)C(CCC(=O)O)NC(=O)c1ccc(C)cc1C (stereo not drawn) [Compound C-32],percentage variation of latency of pain sensation,morphine analgesia; [5],21.8 ± 5%
same,percentage variation of latency of pain sensation,morphine analgesia; [6],58.6 ± 17%
same,percentage variation of latency of pain sensation,morphine analgesia; [7],83.5 ± 10%
same,percentage variation of latency of pain sensation,morphine analgesia; [8],89.8 ± 8%
same,percentage variation of latency of pain sensation,morphine analgesia; [9],78.4 ± 13%
same,percentage variation of latency of pain sensation,morphine analgesia; [10],52.2 ± 22%
same,"M (10-90) ± SE, mean percentage variation of latency",morphine analgesia; [11],64.0 ± 25%
same,Power ratio with respect to morphine alone,morphine analgesia,2.15
same,ED50 (concentration antagonising 50% of contracting effect of CCK-8),[3],> 300 µg/mL
O=C(NC(CCC(=O)N1CCOCC1)C(=O)O)c1ccc(Br)cc1 [Compound D-6],percentage variation of latency of pain sensation,morphine analgesia; [5],31.2 ± 22.0%
same,percentage variation of latency of pain sensation,morphine analgesia; [6],45.8 ± 23.0%
same,percentage variation of latency of pain sensation,morphine analgesia; [7],50.7%
same,percentage variation of latency of pain sensation,morphine analgesia; [8],44.5 ± 24.0%
same,percentage variation of latency of pain sensation,morphine analgesia; [9],45.3 ± 24.0%
same,percentage variation of latency of pain sensation,morphine analgesia; [10],28.2 ± 19.0%
same,"M (10-90) ± SE, mean percentage variation of latency",morphine analgesia; [11],41.0 ± 9.0%
same,Power ratio with respect to morphine alone,morphine analgesia,1.37
same,ED50 (concentration antagonising 50% of contracting effect of CCK-8),[3],> 200 µg/mL
CCCCCCN(CCCCCC)C(=O)C(CCC(=O)O)NC(=O)c1ccc(Cl)c(Cl)c1 (stereo not drawn) [Compound C-8],percentage variation of latency of pain sensation,morphine analgesia; [5],67.4 ± 20.5%
same,percentage variation of latency of pain sensation,morphine analgesia; [6],74.1 ± 15.8%
same,percentage variation of latency of pain sensation,morphine analgesia; [7],80.0 ± 12.9%
same,percentage variation of latency of pain sensation,morphine analgesia; [8],85.9 ± 14.1%
same,percentage variation of latency of pain sensation,morphine analgesia; [9],87.1%
same,percentage variation of latency of pain sensation,morphine analgesia; [10],60.4 ± 17.3%
same,"M (10-90) ± SE, mean percentage variation of latency",morphine analgesia; [11],75.8 ± 10.6%
same,Power ratio with respect to morphine alone,morphine analgesia,2.54
same,ED50 (concentration antagonising 50% of contracting effect of CCK-8),[3],0.93 µg/mL
CCCN(CCC)C(=O)C(CCC(=O)O)NC(=O)c1cc(I)c(I)c(I)c1 (stereo not drawn) [Compound C-19],percentage variation of latency of pain sensation,morphine analgesia; [5],3.6 ± 12.0%
same,percentage variation of latency of pain sensation,morphine analgesia; [6],42.8 ± 19.0%
same,percentage variation of latency of pain sensation,morphine analgesia; [7],58.4 ± 21.0%
same,percentage variation of latency of pain sensation,morphine analgesia; [8],66.1%
same,percentage variation of latency of pain sensation,morphine analgesia; [9],57.1 ± 18.0%
same,percentage variation of latency of pain sensation,morphine analgesia; [10],35.6 ± 20.0%
same,"M (10-90) ± SE, mean percentage variation of latency",morphine analgesia; [11],43.9 ± 22.7%
same,Power ratio with respect to morphine alone,morphine analgesia,1.47
same,ED50 (concentration antagonising 50% of contracting effect of CCK-8),[3],> 200 µg/mL
